Results taken from PubChem BioAssay (NCI).
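In this assay, cells in 96-well plates receive the compound at five concentrations for 48 hours. Endpoints are linearly interpolated between the surrounding concentrations. GI50: concentration for 50% inhibition of growth. TGI is the concentration that stops growth completely.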

Key:
Test in all cases: DTP human tumour cell line panel, 48 h
MCF7 breast = test system: MCF7 breast
UACC-62 melanoma = test system: UACC-62 melanoma
KM12 colon = test system: KM12 colon
DU-145 prostate = test system: DU-145 prostate
SF-268 CNS = test system: SF-268 CNS
EKVX NSCLC = test system: EKVX NSCLC
NCI-H23 lung = test system: NCI-H23 lung
SR leukemia = test system: SR leukemia
M19-MEL melanoma = test system: M19-MEL melanoma
DLD-1 colon = test system: DLD-1 colon
LXFL 529 NSCLC = test system: LXFL 529 NSCLC

| SMILES | GI50 (MCF7 breast) [µM] | TGI (MCF7 breast) [µM] | GI50 (UACC-62 melanoma) [µM] | TGI (UACC-62 melanoma) [µM] | GI50 (KM12 colon) [µM] | TGI (KM12 colon) [µM] | GI50 (DU-145 prostate) [µM] | TGI (DU-145 prostate) [µM] | GI50 (SF-268 CNS) [µM] | TGI (SF-268 CNS) [µM] | GI50 (EKVX NSCLC) [µM] | TGI (EKVX NSCLC) [µM] | GI50 (NCI-H23 lung) [µM] | TGI (NCI-H23 lung) [µM] | GI50 (SR leukemia) [µM] | TGI (SR leukemia) [µM] | TGI (M19-MEL melanoma) [µM] | TGI (DLD-1 colon) [µM] | TGI (LXFL 529 NSCLC) [µM] |
| --- | --- | --- | --- | --- | --- | --- | --- | --- | --- | --- | --- | --- | --- | --- | --- | --- | --- | --- | --- |
| Oc1ccc(O)c(-c2cc(-c3ccc(Cl)cc3)nn2-c2ccccc2)c1 | 3.88 | > 100 | 2.63 | 7.88 | 4.14 | 18.4 | 26.1 | 48.3 | 2.71 | 12.2 | 23.9 | 51.1 | 2.48 | 9.24 | 3 | 14.4 |  |  |  |
| Cc1cc2cc3ccc(N(C)C)cc3nc2cc1N | 0.35 | 11.2 | 0.744 | 2.71 | 0.439 | 2.18 | 0.437 | 2.45 | 0.611 | 2.32 | 0.273 | 3.11 | 0.49 | 4.42 | 0.536 | 5.68 |  |  |  |
| O=[N+]([O-])c1ccc(-c2noc(-c3ccc(Cl)cc3)c2C2=NCCN2)cc1 |  |  |  | > 100 |  | > 100 |  |  |  | > 100 |  | > 100 |  |  |  | > 100 | > 100 | > 100 | > 100 |
| COc1cc2c(cc1OC)C(Sc1ccc(SC)cc1)c1c(nc(N)c(C#N)c1N)O2 (centres undefined) | 1.1 | 3.54 | 1.23 | 2.51 | 1.81 | 3.46 | 1.75 | 3.17 | 1.6 | 3.1 | 1.78 | 3.32 | 1.78 | 3.55 | 0.354 | 2.35 |  |  |  |
| CCOC(=O)c1c(C)n(Cc2ccccc2)c2c1cc(O)c1[nH]c(Cc3ccccc3)nc12 | 7.4 | > 53.1 | 23.8 | > 100 | 4.36 | > 43.7 | 20.5 | > 57.7 | 13.8 | > 100 | 25.5 | > 79.5 | 9.19 | > 56 | 3.23 | 25.3 |  |  |  |
| COc1cccc(-c2nn(-c3ccccc3)cc2-c2ccnc(NCCNC(=O)Nc3cccc(C(F)(F)F)c3)c2)c1 | 2.07 | 4.89 | 1.85 | 3.73 | 2.08 | 4.54 | 4.16 | 14.9 | 2 | 4.49 | 2 | 6.65 | 1.86 | 4.15 | 1.91 | 4.97 |  |  |  |
| Cc1ccc(/C=C2\CN(C(=O)C(Cl)Cl)C/C(=C\c3ccc(C)cc3)C2=O)cc1 | 0.0546 | 0.836 | 0.237 | 0.632 | 0.193 | 0.48 | 0.326 | 1.28 | 0.331 | 2.43 | 0.348 | 2.31 | 0.221 | 0.478 | 0.11 | > 100 |  |  |  |
| CN(Cc1cccc(F)c1)c1ccc(CO)c(Cl)c1 | 1.03 | 26.3 | 0.288 | 2.42 | 20.5 | 79.6 | 29.7 | > 100 | 34.4 | > 100 | 27.2 | > 100 | 13.3 | > 92.6 | 24.4 | > 88.6 |  |  |  |
| Oc1ccc(-c2nc3ccc4[nH]ncc4c3c3c2CCCC3)c(F)c1 | 4.91 | 20.7 | 1.67 | 4.37 | 0.362 | 13.2 | 2.89 | 13.2 | 3.27 | 14.7 | 3.16 | 13.5 | 3.15 | 14 | 0.464 | 7.46 |  |  |  |
| COC(=O)C(=CNC(N)=O)C(=O)OC |  | > 100 |  | > 100 |  | > 100 |  | > 100 |  | > 100 |  | > 100 |  | > 100 |  | > 100 |  |  |  |
| Cc1ccc(C(NC(=O)c2ccccc2)c2ccc3cccnc3c2O)cc1 (centres undefined) | 0.365 | > 47.3 | 0.236 | 0.763 | 0.38 | > 43.7 | 0.442 | 41.9 | 0.266 | > 48.4 | 0.357 | 53.5 | 0.417 | > 32.5 | 0.197 | > 63.5 |  |  |  |
| CCCCCCNC(=O)Oc1ccc(/C(=C(/C)Cc2ccc(OC)cc2)c2ccc(OCCCN(C)C)cc2)cc1 | 1.12 | 17.1 | 16.6 | 30.4 | 13.9 | 27.7 | 16.8 | 31.3 | 15 | 30.5 | 13.2 | 27.5 | 15.1 | 29.9 | 2.79 | 11.9 |  |  |  |
| N[C@@H]1C(=O)N2C(C(=O)OC(c3ccccc3)c3ccccc3)=C(CCl)CS[C@H]12 | 33.6 | > 100 | 42.7 | > 91.2 | 38.1 | > 100 | 15 | > 100 | 31.7 | 98.7 | 60.1 | > 100 | 95.6 | > 100 | 2.12 | 33.8 |  |  |  |
| COC1=C(C)C(=O)c2c(c(CCCl)c3n2CCC3O)C1=O (centres undefined) | 0.125 | 1.9 | 0.319 | 1.28 | 1.37 | 6.73 | 0.039 | 1.9 | 0.533 | 20 | 2.3 | 7.69 | 0.133 | 0.799 | 0.409 | > 26.8 |  |  |  |
| CC(C)N1CCN(Cc2ccc3c(NNC(=O)c4ccccc4)nc4cc(F)ccc4n23)CC1 | 0.341 | 1.48 | 0.388 | 2.67 | 0.397 | 11 | 0.629 | 13.3 | 0.355 | 12.7 | 0.172 | 6.79 | 0.93 | 8.94 | 0.185 | 6.83 |  |  |  |
